Experimental findings from patent US10723692B2, “Lipids and lipid nanoparticle formulations for delivery of nucleic acids” (Acuitas Therapeutics, Inc., priority 2014, dated 2020) are described below.

In general, pKa refers to the pH at which an ionisable group is half protonated.

Series [1] relates to luciferase expression in the liver. Put plainly: In vivo luciferase mRNA expression rodent model (LNP, liver luciferase). Also on record: species or system C57BL/6 mice. The settings on record: Table 3, tail vein, liver 4 hours, LNP with 1.5% PEG-DMA (42-6), FLuc mRNA; for Liver Luc @ 0.3 mg/kg (ng luc/g liver): 0.3 mg mRNA/kg; for Liver Luc @ 1.0 mg/kg (ng luc/g liver): 1.0 mg mRNA/kg. As to the method:
Cationic lipid (MC3), DSPC, cholesterol and PEG-lipid were solubilized in ethanol at a molar ratio of 50:10:38.5:1.5. Lipid nanoparticles (LNP) were prepared at a total lipid to mRNA weight ratio of approximately 10:1 to 30:1. Briefly, the mRNA was diluted to 0.2 mg/mL in 10 to 50 mM citrate buffer, pH 4. Syringe pumps were used to mix the ethanolic lipid solution with the mRNA aqueous solution at a ratio of about 1:5 to 1:3 (vol/vol) with total flow rates above 15 ml/min. The ethanol was then removed and the external buffer replaced with PBS by dialysis. Finally, the lipid nanoparticles were filtered through a 0.2 μm pore sterile filter. Lipid nanoparticle particle size was 70-90 nm diameter as determined by quasi-elastic light scattering using a Nicomp 370 submicron particle sizer (Santa Barbara, Calif.).
Studies were performed in 6-8 week old female C57BL/6 mice (Charles River) according to guidelines established by an institutional animal care committee (ACC) and the Canadian Council on Animal Care (CCAC). Varying doses of mRNA-lipid nanoparticle were systemically administered by tail vein injection and animals euthanized at specific time points (1, 2, 4, 8 and 24 hrs) post-administration. Liver and spleen were collected in pre-weighted tubes, weights determined, immediately snap frozen in liquid nitrogen and stored at −80° C. until processing for analysis.
For liver, approximately 50 mg was dissected for analyses in a 2 mL FastPrep tubes (MP Biomedicals, Solon Ohio). ¼″ ceramic sphere (MP Biomedicals) was added to each tube and 500 μL of Glo Lysis Buffer—GLB (Promega, Madison Wis.) equilibrated to room temperature was added to liver tissue. Liver tissues were homogenized with the FastPrep24 instrument (MP Biomedicals) at 2×6.0 m/s for 15 seconds. Homogenate was incubated at room temperature for 5 minutes prior to a 1:4 dilution in GLB and assessed using SteadyGlo Luciferase assay system (Promega). Specifically, 50 μL of diluted tissue homogenate was reacted with 50 μL of SteadyGlo substrate, shaken for 10 seconds followed by 5 minute incubation and then quantitated using a CentroXS^3 LB 960 luminometer (Berthold Technologies, Germany). The amount of protein assayed was determined by using the BCA protein assay kit (Pierce, Rockford Ill.). Relative luminescence units (RLU) were then normalized to total ug protein assayed. To convert RLU to ng luciferase a standard curve was generated with QuantiLum Recombinant Luciferase (Promega). Based in the data provided in FIG. 1, the four-hour time point was chosen for efficacy evaluation of the lipid formulations (see EXAMPLE 48).
The FLuc mRNA (L-6107) from Trilink Biotechnologies will express a luciferase protein, originally isolated from the firefly, Photinus pyralis. FLuc is commonly used in mammalian cell culture to measure both gene expression and cell viability. It emits bioluminescence in the presence of the substrate, luciferin. This capped and polyadenylated mRNA is fully substituted with 5-methylcytidine and pseudouridine.
The cationic lipids shown in Table 2 have previously been tested with nucleic acids. For comparative purposes, these lipids were also used to formulate lipid nanoparticles containing the FLuc mRNA (L-6107) using an in line mixing method, as described in EXAMPLE 47 and in PCT/US10/22614, which is hereby incorporated by reference in its entirety. Lipid nanoparticles were formulated using the following molar ratio: 50% Cationic lipid/10% distearoylphosphatidylcholine (DSPC)/38.5% Cholesterol/1.5% PEG lipid (“PEG-DMG”, i.e., (1-(monomethoxy-polyethyleneglycol)-2,3-dimyristoylglycerol, with an average PEG molecular weight of 2000). Relative activity was determined by measuring luciferase expression in the liver 4 hours following administration via tail vein injection as described in EXAMPLE 47. The activity was compared at a dose of 0.3 and 1.0 mg mRNA/kg and expressed as ng luciferase/g liver measured 4 hours after administration, as described in EXAMPLE 47. […]

Series [2] can be described thus: pKa of formulated cationic lipids in lipid nanoparticles (TNS fluorescence assay). It counts as physicochemical. The settings on record: Table 3, in LNP cationic lipid/DSPC/cholesterol/PEG-lipid 50/10/38.5/1.5 mol %, read-out: pKa. The procedure:
As described elsewhere, the pKa of formulated cationic lipids is correlated with the effectiveness of LNPs for delivery of nucleic acids (see Jayaraman et al, Angewandte Chemie, International Edition (2012), 51(34), 8529-8533; Semple et al, Nature Biotechnology 28, 172-176 (2010)). The preferred range of pKa is ˜5 to ˜7. […] Lipid nanoparticles comprising of cationic lipid/DSPC/cholesterol/PEG-lipid (50/10/38.5/1.5 mol %) in PBS at a concentration of 0.4 mM total lipid are prepared using the in-line process as described in EXAMPLE 47. TNS was prepared as a 100 μM stock solution in distilled water. Vesicles were diluted to 24 μM lipid in 2 mL of buffered solutions containing, 10 mM HEPES, 10 mM MES, 10 mM ammonium acetate, 130 mM NaCl, where the pH ranged from 2.5 to 11. An aliquot of the TNS solution was added to give a final concentration of 1 μM and following vortex mixing fluorescence intensity was measured at room temperature in a SLM Aminco Series 2 Luminescence Spectrophotometer using excitation and emission wavelengths of 321 nm and 445 nm. A sigmoidal best fit analysis was applied to the fluorescence data and the pKa was measured as the pH giving rise to half-maximal fluorescence intensity (see FIG. 2).

As to `CCCCCCCCC(CCCCCC)COC(=O)CCCCCN(CCCCCC(=O)OCC(CCCCCC)CCCCCCCC)CCN(C)CC` (stereo not drawn) [Compound 33], in series [1], the “Liver Luc @ 0.3 mg/kg (ng luc/g liver)” value is on record as 711 ± 272 ng luc/g liver and the “Liver Luc @ 1.0 mg/kg (ng luc/g liver)” value was determined as 4448 ± 512 ng luc/g liver. Besides, the pKa in series [2] is 6.27.
As to `CCCCCCCCC(CCCCCC)COC(=O)CCCCCN(CCCCCC(=O)OCC(CCCCCC)CCCCCCCC)CCN1CCCC1` (stereo not drawn) [Compound 32], in series [1], the “Liver Luc @ 0.3 mg/kg (ng luc/g liver)” value was found to be 626 ± 299 ng luc/g liver and the “Liver Luc @ 1.0 mg/kg (ng luc/g liver)” value is recorded as 12266 ± 192 ng luc/g liver. Moreover, the pKa in series [2] is 6.47.
`C/C(=C\COC(=O)CN(CCN(C)C)CC(=O)OC/C=C(\C)CCCC(C)CCCC(C)CCCC(C)C)CCCC(C)CCCC(C)CCCC(C)C` (stereo not drawn) [Compound 3]: in series [1], the “Liver Luc @ 0.3 mg/kg (ng luc/g liver)” value was 1.5 ± 0.6 ng luc/g liver and the “Liver Luc @ 1.0 mg/kg (ng luc/g liver)” value is reported as 0.32 ± 0.1 ng luc/g liver. Further, the pKa in series [2] came to 7.15.
`CCCCCCCCCCC(CCCCCCCC)COC(=O)CCCCCN(CCCCCC(=O)OCC(CCCCCCCC)CCCCCCCCCC)CCN1CCCC1` (stereo not drawn) [Compound 31]: in series [1], the “Liver Luc @ 0.3 mg/kg (ng luc/g liver)” value is recorded as 344 ± 160 ng luc/g liver and the “Liver Luc @ 1.0 mg/kg (ng luc/g liver)” value was found to be 4103 ± 1073 ng luc/g liver. Further, in series [2], the pKa was 6.33.
On to `CCCCCCCCCCCOC(=O)CCCCCCCCCN(CCCCCCCCCC(=O)OCCCCCCCCCCC)CCN(C)C` [Compound 15], for which, in series [1], the “Liver Luc @ 0.3 mg/kg (ng luc/g liver)” value is listed as 66 ± 32 ng luc/g liver and the “Liver Luc @ 1.0 mg/kg (ng luc/g liver)” value was determined as 243 ± 71 ng luc/g liver. In addition, the pKa in series [2] came out at 6.3.
Taken in the same sequence, the figures for `CCCCCCCCOC(=O)CCCCCCCCCN(CCCCCCCCCC(=O)OCCCCCCCC)CCN(C)C` [Compound 13] were 16 ± 4 ng luc/g liver, 20 ± 20 ng luc/g liver and 6.51.
Taken in the same sequence, the figures for `C/C(=C\COC(=O)CCCCCN(CCCCCC(=O)OC/C=C(\C)CCCC(C)CCCC(C)CCCC(C)C)CCN(C)C)CCCC(C)CCCC(C)CCCC(C)C` (stereo not drawn) [Compound 2] were 23 ± 6 ng luc/g liver, 84 ± 24 ng luc/g liver and 5.64.
Taken in the same sequence, the figures for `CCCCCCCCC(CCCCCC)COC(=O)CCCCCCCN(CCCCCCCC(=O)OCC(CCCCCC)CCCCCCCC)CCN(C)C` (stereo not drawn) [Compound 23] were 1109 ± 209 ng luc/g liver, 4568 ± 762 ng luc/g liver and 6.24.
Turning to `CCCCCCCCC(CCCCCC)COC(=O)CCCCCN(CCCCCC(=O)OCC(CCCCCC)CCCCCCCC)CCN(C)C` (stereo not drawn) [Compound 22], in series [1], the “Liver Luc @ 0.3 mg/kg (ng luc/g liver)” value was 2126 ± 294 ng luc/g liver and the “Liver Luc @ 1.0 mg/kg (ng luc/g liver)” value is 14486 ± 6607 ng luc/g liver. For the same compound, the pKa in series [2] stood at 6.53.
For the compound `CCCCCCCCCCC(C)OC(=O)CCCCCCCCCN(CCCCCCCCCC(=O)OC(C)CCCCCCCCCC)CCN(C)C` (stereo not drawn) [Compound 24], in series [1], the “Liver Luc @ 0.3 mg/kg (ng luc/g liver)” value is given as 1094 ± 180 ng luc/g liver and the “Liver Luc @ 1.0 mg/kg (ng luc/g liver)” value is 6928 ± 1015 ng luc/g liver. Besides, the pKa in series [2] came out at 6.28.
In the case of `CCCCC(CC)C(=O)OCCCCCCCCCCCCN(CCCCCCCCCCCCOC(=O)C(CC)CCCC)CCN(C)C` (stereo not drawn) [Compound 4], in series [1], the “Liver Luc @ 0.3 mg/kg (ng luc/g liver)” value is 53 ± 10 ng luc/g liver and the “Liver Luc @ 1.0 mg/kg (ng luc/g liver)” value is 126 ± 102 ng luc/g liver. Besides, the pKa in series [2] is 6.43.
Taken in the same sequence, the figures for `CCCCC/C=C\C/C=C\CCCCCCCCOC(=O)CCCCCN(CCCCCC(=O)OCCCCCCCC/C=C\C/C=C\CCCCC)CCN(C)C` [Compound 26] were 30 ± 5 ng luc/g liver, 55 ± 0.8 ng luc/g liver and 6.89.
Taken in the same sequence, the figures for `CCCCCCC(CCCC)C(=O)OCCCCCCCCCN(CCCCCCCCCOC(=O)C(CCCC)CCCCCC)CCN(C)C` (stereo not drawn) [Compound 38] were 977 ± 336 ng luc/g liver, 7135 ± 1020 ng luc/g liver and 6.24.
`CCCCCC(CCCC)OC(=O)CCCCCCCCCN(CCCCCCCCCC(=O)OC(CCCC)CCCCC)CCN(C)C` (stereo not drawn) [Compound 11]: in series [1], the “Liver Luc @ 0.3 mg/kg (ng luc/g liver)” value came out at 328 ± 12 ng luc/g liver and the “Liver Luc @ 1.0 mg/kg (ng luc/g liver)” value is 1266 ± 522 ng luc/g liver. The pKa in series [2] was determined as 6.36.
The like results for `CCCCCCCCCCCCC(CCCCCCCCCC)C(=O)OCCCCCCN(CCCCCCOC(=O)C(CCCCCCCCCC)CCCCCCCCCCCC)CCN(C)C` (stereo not drawn) [Compound 39] were, in that order, 36 ± 13 ng luc/g liver, 326 ± 81 ng luc/g liver and 5.82.
Taken in the same sequence, the figures for `CCCCCCC(CCCCCC)OC(=O)CCCCCCCCCN(CCCCCCCCCC(=O)OC(CCCCCC)CCCCCC)CCN(C)C` [Compound 29] were 1303 ± 445 ng luc/g liver, 9750 ± 3519 ng luc/g liver and 6.22.
Taken in the same sequence, the figures for `CCCCCCCCC(CCCCCC)COC(=O)CCCCCCCCCN(CCCCCCCCCC(=O)OCC(CCCCCC)CCCCCCCC)CCN(C)C` (stereo not drawn) [Compound 25] were 901 ± 173 ng luc/g liver, 6223 ± 1714 ng luc/g liver and 6.2.
As to `CC(C)=CCCC(C)CC(=O)OCCCCCCCCCCCCN(CCCCCCCCCCCCOC(=O)CC(C)CCC=C(C)C)CCN(C)C` (stereo not drawn) [Compound 35], in series [1], the “Liver Luc @ 0.3 mg/kg (ng luc/g liver)” value stood at 35 ± 15 ng luc/g liver and the “Liver Luc @ 1.0 mg/kg (ng luc/g liver)” value turned out to be 101 ± 69 ng luc/g liver. Also, the pKa in series [2] amounted to 6.21.
For the compound `CCCCCCCCCCC(CCCCCCCC)COC(=O)CCCCCN(CCCCCC(=O)OCC(CCCCCCCC)CCCCCCCCCC)CCN(C)C` (stereo not drawn) [Compound 27], in series [1], the “Liver Luc @ 0.3 mg/kg (ng luc/g liver)” value was 724 ± 144 ng luc/g liver and the “Liver Luc @ 1.0 mg/kg (ng luc/g liver)” value was 6636 ± 1230 ng luc/g liver. Further, in series [2], the pKa worked out at 6.3.
Consider `CCCCCCCC/C=C/COC(=O)CCCCCCCN(CCCCCCCC(=O)OC/C=C/CCCCCCCC)CCN(C)C` [Compound 19], for which, in series [1], the “Liver Luc @ 0.3 mg/kg (ng luc/g liver)” value is 8 ± 3 ng luc/g liver and the “Liver Luc @ 1.0 mg/kg (ng luc/g liver)” value was determined as 15 ± 21 ng luc/g liver. The pKa in series [2] was 6.72.
